Results reported in patent US12285012B2, “Compositions comprising pyridine carboxylate herbicides with acetolactate synthase (ALS) inhibitor herbicides” (Corteva Agriscience LLC, priority 2018, dated 2025).
Where “and” joins values, the source holds several entries; their conditions need not be identical. Equal values may be shown once. Read-outs that look alike come from different tables or passages of the source.

Tests used:
[1] = test system: kochia (KCHSC, Kochia scoparia); test: Greenhouse postemergence herbicidal effect; type: in vivo
In short: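 Plants at the second or third true leaf stage received overhead spray at 187 L/ha, with the pyridine carboxylate (plus cloquintocet-mexyl safener) alone or with ALS herbicides in 1.25% v/v crop oil. Rates are in g ae/ha or g ai/ha. Visual injury versus solvent-blank controls was scored 0–100% after 20-22 d in the greenhouse.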

[2] = test system: spring wheat (TRZAS); type: in vivo, Triticum aestivum; conditions: for % visual injury Obs-Exp: Pyroxsulam 0
In short: (§1)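 Plants at the second or third true leaf stage, grown at about 23/22 °C day/night with a 14 h photoperiod, were sprayed postemergence. Emulsifiable concentrates held cloquintocet-mexyl safener at 120 g ai/L; rates are g ae/ha (pyridine carboxylate) or g ai/ha (ALS inhibitor). Injury was scored visually against solvent-blank controls at 20-22 d (0-100%).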

[3] = test system: wild chamomile (MATCH, Matricaria chamomilla); test: Greenhouse postemergence herbicidal effect; type: in vivo
In short: as §1

[4] = test system: Russian thistle (SASKR, Salsola kali); test: Greenhouse postemergence herbicidal effect; type: in vivo
In short: as §1

[5] = test system: pigweed (AMARE, Amaranthus retroflexus); test: Greenhouse postemergence herbicidal effect; type: in vivo
In short: as §1

[6] = test system: winter rape (BRSNW, Brassica napus); test: Greenhouse postemergence herbicidal effect; type: in vivo
In short: as §1

[7] = test system: wild pansy (VIOTR, Viola tricolor); test: Greenhouse postemergence herbicidal effect; type: in vivo
In short: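 Injury was rated visually after 20-22 d on a 0 (none) to 100% (complete kill) scale relative to solvent-sprayed controls, with sub-irrigation to avoid wash-off. Rates were given in g ae/ha or g ai/ha depending on component.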

[8] = test system: wild buckwheat (POLCO, Polygonum convolvulus); test: Greenhouse postemergence herbicidal effect; type: in vivo
In short: as §1

[9] = test system: Canadian thistle (CIRAR, Cirsium arvense); test: Greenhouse postemergence herbicidal effect; type: in vivo
In short: as §1

[10] = test system: pineapple weed (MATMT, Matricaria discoidea); test: Greenhouse postemergence herbicidal effect; type: in vivo
In short: as §1

[11] = test system: chickweed (STEME, Stellaria media); test: Greenhouse postemergence herbicidal effect; type: in vivo
In short: as §1

[12] = Compound A 10 g/ha (Examples 62-63)
[13] = Compound A 10 g/ha, safener mefenpyr-diethyl

N#CCOC(=O)c1nc(-c2ccc3cc[nH]c3c2F)c(F)c(N)c1Cl [Compound A, cyanomethyl 4-amino-3-chloro-5-fluoro-6-(7-fluoro-1H-indol-6-yl)pyridine-2-carboxylate]
pest or weed control at 10 g/ha ([1]; Bassia scoparia, post-emergence, 10 g/ha, read-out: % visual injury, Obs): 68%
pest or weed control at 10 g/ha ([1]; Bassia scoparia, post-emergence, Compound A 10 g/ha, read-out: % visual injury, Obs): 65%
pest or weed control at 10 g/ha ([1]; Bassia scoparia, post-emergence, Compound A 10 g/ha, safener mefenpyr-diethyl, read-out: % visual injury, Obs): 70%
pest or weed control at 10 g/ha ([1]; Bassia scoparia, post-emergence, KCHSC, Compound A 10 g/ha, read-out: % visual injury, Obs): 68%
pest or weed control at 15 g/ha ([1]; Bassia scoparia, post-emergence, KCHSC, Compound A 15 g/ha, read-out: % visual injury, Obs): 68%
% visual injury ([1]; Compound A 10 g/ha): 75% and 63% and 70% and 68%
% visual injury Obs ([1]; Compound A 10 g/ha): 68% and 58% and 70%
KCHSC % visual injury Obs [1, 12]: 65%
KCHSC % visual injury Obs [1, 13]: 70%
% visual injury ([1]; Compound A 15 g/ha): 75% and 68%
% visual injury Obs ([1]; Compound A 15 g/ha): 68%
Obs % visual injury ([1]; KCHSC, Compound A 10 g/ha): 68% and 70% and 65%
Obs % visual injury ([1]; KCHSC, Compound A 10 g/ha (Table 65)): 65%
Obs % visual injury ([1]; KCHSC, Compound A 10 g/ha (Table 66)): 70%
Obs % visual injury ([1]; KCHSC, Compound A 10 g/ha (Table 67)): 70%
Obs % visual injury ([1]; KCHSC, Compound A 15 g/ha): 68%
Obs % visual injury ([1]; KCHSC, Compound A 15 g/ha (Table 67)): 70%
% visual injury, Obs ([2]; 10 g/ha): 0%
% visual injury ([2]; Compound A 10 g/ha): 0% and 3%
% visual injury Obs ([2]; Compound A 10 g/ha): 0%
% visual injury, Obs ([2]; Compound A 10 g/ha): 0%
TRZAS % visual injury Obs [2, 12]: 0%
% visual injury, Obs [2, 13]: 3%
TRZAS % visual injury Obs [2, 13]: 3%
% visual injury ([2]; Compound A 15 g/ha): 0%
% visual injury Obs ([2]; Compound A 15 g/ha): 0%
% visual injury, Obs ([2]; TRZAS, Compound A 10 g/ha): 0%
Obs % visual injury ([2]; TRZAS, Compound A 10 g/ha): 0%
Obs % visual injury ([2]; TRZAS, Compound A 10 g/ha (Table 65)): 0%
Obs % visual injury ([2]; TRZAS, Compound A 10 g/ha (Table 66)): 0%
Obs % visual injury ([2]; TRZAS, Compound A 10 g/ha (Table 67)): 3%
% visual injury, Obs ([2]; TRZAS, Compound A 15 g/ha): 0%
Obs % visual injury ([2]; TRZAS, Compound A 15 g/ha): 0%
Obs % visual injury ([2]; TRZAS, Compound A 15 g/ha (Table 67)): 0%
% visual injury Obs-Exp ([2]; printed under Compound A 10 g/ha): 0%
% visual injury Obs-Exp ([2]; printed under Compound A 15 g/ha): 0%
% visual injury ([3]; Compound A 10 g/ha): 40% and 30% and 45%
% visual injury, Obs ([3]; Compound A 10 g/ha): 13%
MATCH % visual injury Obs [3, 12]: 13%
% visual injury ([3]; Compound A 15 g/ha): 50% and 45%
% visual injury Obs ([3]; Compound A 15 g/ha): 45%
Obs % visual injury ([3]; MATCH, Compound A 10 g/ha (Table 65)): 13%
Obs % visual injury ([3]; MATCH, Compound A 10 g/ha (Table 66)): 30%
Obs % visual injury ([3]; MATCH, Compound A 10 g/ha (Table 67)): 15%
% visual injury, Obs ([3]; MATCH, Compound A 15 g/ha): 45%
Obs % visual injury ([3]; MATCH, Compound A 15 g/ha): 45%
Obs % visual injury ([3]; MATCH, Compound A 15 g/ha (Table 67)): 10%
% visual injury, Obs ([4]; 10 g/ha): 60% and 63%
% visual injury ([4]; Compound A 10 g/ha): 70% and 63%
% visual injury Obs ([4]; Compound A 10 g/ha): 60% and 63%
% visual injury, Obs ([4]; Compound A 10 g/ha): 65%
SASKR % visual injury Obs [4, 12]: 65%
% visual injury ([4]; Compound A 15 g/ha): 75%
% visual injury, Obs ([4]; SASKR, Compound A 10 g/ha): 60%
Obs % visual injury ([4]; SASKR, Compound A 10 g/ha): 63% and 65%
Obs % visual injury ([4]; SASKR, Compound A 10 g/ha (Table 65)): 65%
Obs % visual injury ([4]; SASKR, Compound A 10 g/ha (Table 67)): 58%
Obs % visual injury ([4]; SASKR, Compound A 15 g/ha (Table 67)): 65%
% visual injury, Obs ([5]; 10 g/ha): 90%
% visual injury, Obs ([5]; AMARE, Compound A 10 g/ha): 75%
Obs % visual injury ([5]; AMARE, Compound A 10 g/ha): 75% and 85% and 100%
Obs % visual injury ([5]; AMARE, Compound A 10 g/ha (Table 65)): 100%
Obs % visual injury ([5]; AMARE, Compound A 10 g/ha (Table 66)): 90%
Obs % visual injury ([5]; AMARE, Compound A 10 g/ha (Table 67)): 78%
% visual injury, Obs ([5]; AMARE, Compound A 15 g/ha): 80%
Obs % visual injury ([5]; AMARE, Compound A 15 g/ha): 80%
Obs % visual injury ([5]; AMARE, Compound A 15 g/ha (Table 67)): 83%
% visual injury ([5]; Compound A 10 g/ha): 73% and 90% and 75%
% visual injury Obs ([5]; Compound A 10 g/ha): 75% and 100% and 85%
% visual injury, Obs ([5]; Compound A 10 g/ha): 100%
AMARE % visual injury Obs [5, 12]: 100%
% visual injury, Obs [5, 13]: 98%
AMARE % visual injury Obs [5, 13]: 98%
% visual injury ([5]; Compound A 15 g/ha): 80%
% visual injury Obs ([5]; Compound A 15 g/ha): 80%
% visual injury, Obs ([6]; 10 g/ha): 68%
% visual injury, Obs ([6]; BRSNW, Compound A 10 g/ha): 45%
Obs % visual injury ([6]; BRSNW, Compound A 10 g/ha): 45% and 40%
Obs % visual injury ([6]; BRSNW, Compound A 10 g/ha (Table 66)): 68%
Obs % visual injury ([6]; BRSNW, Compound A 10 g/ha (Table 67)): 60%
% visual injury, Obs ([6]; BRSNW, Compound A 15 g/ha): 73%
Obs % visual injury ([6]; BRSNW, Compound A 15 g/ha): 73%
Obs % visual injury ([6]; BRSNW, Compound A 15 g/ha (Table 67)): 75%
% visual injury ([6]; Compound A 10 g/ha): 75% and 43% and 68% and 45%
% visual injury Obs ([6]; Compound A 10 g/ha): 45% and 40%
% visual injury ([6]; Compound A 15 g/ha): 75% and 73%
% visual injury Obs ([6]; Compound A 15 g/ha): 73%
% visual injury, Obs ([7]; 10 g/ha): 23%
% visual injury ([7]; Compound A 10 g/ha): 10%
% visual injury, Obs [7, 13]: 18%
VIOTR % visual injury Obs [7, 13]: 18%
% visual injury ([7]; Compound A 15 g/ha): 10%
% visual injury, Obs ([8]; 10 g/ha): 70%
% visual injury ([8]; Compound A 10 g/ha): 95% and 93% and 70% and 98%
% visual injury, Obs ([8]; Compound A 10 g/ha): 91%
POLCO % visual injury Obs [8, 12]: 91%
% visual injury, Obs [8, 13]: 100%
POLCO % visual injury Obs [8, 13]: 100%
% visual injury ([8]; Compound A 15 g/ha): 97% and 88%
% visual injury Obs ([8]; Compound A 15 g/ha): 88%
% visual injury, Obs ([8]; POLCO, Compound A 10 g/ha): 98% and 78%
Obs % visual injury ([8]; POLCO, Compound A 10 g/ha (Table 65)): 91%
Obs % visual injury ([8]; POLCO, Compound A 10 g/ha (Table 66)): 70%
Obs % visual injury ([8]; POLCO, Compound A 10 g/ha (Table 67)): 60%
% visual injury, Obs ([8]; POLCO, Compound A 15 g/ha): 88%
Obs % visual injury ([8]; POLCO, Compound A 15 g/ha): 88%
Obs % visual injury ([8]; POLCO, Compound A 15 g/ha (Table 67)): 63%
Obs % visual injury ([9]; CIRAR, Compound A 10 g/ha (Table 65)): 20%
Obs % visual injury ([9]; CIRAR, Compound A 10 g/ha (Table 66)): 30%
Obs % visual injury ([9]; CIRAR, Compound A 15 g/ha): 55%
pest or weed control at 10 g/ha ([9]; Cirsium arvense, post-emergence, 10 g/ha, read-out: % visual injury, Obs): 43%
pest or weed control at 10 g/ha ([9]; Cirsium arvense, post-emergence, CIRAR, Compound A 10 g/ha, read-out: % visual injury, Obs): 33%
pest or weed control at 15 g/ha ([9]; Cirsium arvense, post-emergence, CIRAR, Compound A 15 g/ha, read-out: % visual injury, Obs): 55%
pest or weed control at 10 g/ha ([9]; Cirsium arvense, post-emergence, Compound A 10 g/ha, read-out: % visual injury, Obs): 20%
pest or weed control at 10 g/ha ([9]; Cirsium arvense, post-emergence, Compound A 10 g/ha, safener mefenpyr-diethyl, read-out: % visual injury, Obs): 43%
% visual injury ([9]; Compound A 10 g/ha): 40% and 60% and 30% and 33%
% visual injury Obs ([9]; Compound A 10 g/ha): 33% and 55%
CIRAR % visual injury Obs [9, 12]: 20%
CIRAR % visual injury Obs [9, 13]: 43%
% visual injury ([9]; Compound A 15 g/ha): 65% and 55%
% visual injury Obs ([9]; Compound A 15 g/ha): 55%
% visual injury ([10]; Compound A 10 g/ha): 15%
% visual injury ([10]; Compound A 15 g/ha): 30%
% visual injury ([11]; Compound A 10 g/ha): 100%
% visual injury, Obs [11, 13]: 83%
STEME % visual injury Obs [11, 13]: 83%
% visual injury ([11]; Compound A 15 g/ha): 100%
